Measurements from patent US20220146526A1, “METHOD FOR EVALUATING SAMPLE, ANALYSIS METHOD, METHOD FOR DETECTING DEGRADED SAMPLE, MARKER FOR DETECTING DEGRADED BLOOD PLASMA SAMPLE, AND MARKER FOR DETECTING DEGRADED SERUM SAMPLE” (SHIMADZU CORPORATION, priority 2019, published 2022).

Assays:
Assay type in all cases: physicochemical, human
[1] = GC/MS of blood plasma sample: time from blood collection to cooling of blood (Table B); design: key to Rate of increase or decrease / Rate of increase or decrease (first value, increase): detection intensity relative to 1 at cooling time ≤1 min; conditions: for Increase or decrease: detection intensity, blood collection to cooling 5 minutes or more vs 1 minute or less; for Rate of increase or decrease: detection intensity relative to 1 at 1 minute or less, blood collection to cooling 5 minutes
Method in brief: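 Blood drawn at room temperature into EDTA tubes, mixed, then cooled at 4° C. within 1 minute or less versus 5 minutes or more before centrifugation (4° C., 3000 rpm, 15 minutes). Plasma was frozen, methoxymated and trimethylsilylated, and analysed by EI GC/MS in MRM mode. Values are detection intensity relative to the ≤1 minute condition.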

[2] = GC/MS of blood plasma sample: time from blood collection to centrifugation (Table A); conditions: for Rate of increase or decrease: detection intensity relative to 1 at 15 minutes; for Rate of increase or decrease / Increase or decrease: blood collection to centrifugation; for Increase or decrease: detection intensity, after 4 hours vs 15 minutes
Method in brief: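 EDTA blood from a healthy subject was cooled at 4° C, centrifuged at 4° C, 3000 rpm, 15 minutes, and plasma was frozen. After methoxymation and trimethylsilylation, samples ran on GC/MS (BPX5 column, 60-330° C gradient, electron ionization, MRM). Intensity is relative to 15 minutes from collection to centrifugation.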

[3] = GC/MS of serum sample: number of times of freezing and thawing (Table I); design: key to Rate of increase or decrease / Rate of increase or decrease (first value, increase): detection intensity relative to 2 freeze-thaw cycles = 1
Method in brief: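 Serum was isolated after centrifugation at room temperature (3500 rpm, 5 min), frozen, and put through 2, 4, 6 or 10 freeze–thaw cycles. Samples were methoxymated and trimethylsilylated, then run by electron-ionization GC/MS in MRM mode on a BPX5 column (60 to 330 °C). Detection intensity is given relative to the 2-cycle sample, set as 1.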

[4] = LC/MS of blood plasma sample: number of times of freezing and thawing (Table F); conditions: for Rate of increase or decrease: detection intensity relative to 1 at 2 times; for Increase or decrease: detection intensity
Method in brief: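 Human blood from a healthy subject drawn into EDTA tubes, cooled to 4° C within 1 min or after ≥5 min, centrifuged at 4° C, 3000 rpm, 15 min. Plasma frozen, then freeze-thawed 2, 4, 6 or 10 times and analysed by LC/MS (ESI, MRM). Intensities expressed relative to 2 freeze-thaw cycles set as 1.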

[5] = LC/MS of blood plasma sample: time from blood collection to centrifugation (Table D); conditions: for Rate of increase or decrease: detection intensity relative to 1 at 15 minutes; for Rate of increase or decrease / Increase or decrease: blood collection to centrifugation; for Increase or decrease: detection intensity
Method in brief: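 Healthy-subject blood (5 mL, EDTA) cooled and held at 4 °C before centrifugation (4 °C, 3000 rpm, 15 min), with plasma then frozen. LC/MS on Discovery HS F5-3 column at 40 °C, 0.1% formic acid water/acetonitrile, 0.25 mL/min, electrospray, MRM; intensities relative to 15 min collection-to-centrifugation set as 1.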

[6] = freezing and thawing 4 times vs 2 times
[7] = different from individual to individual, individuals with decrease, relative to 1 at 15 minutes, collection to centrifugation, after 4 hours
[8] = different from individual to individual, individuals with increase, relative to 1 at 15 minutes, collection to centrifugation, after 4 hours

NC(=O)NC1NC(=O)NC1=O (centres unmarked) [Allantoin]
Increase or decrease [1]: Different from individual
Rate of increase or decrease (second value, decrease) ([1]; different from individual to individual, individuals with decrease, relative to 1 at 1 minute or less, collection to cooling 5 minutes): 0.57
Rate of increase or decrease (first value, increase) ([1]; different from individual to individual, individuals with increase, relative to 1 at 1 minute or less, collection to cooling 5 minutes): 1.30
Rate of increase or decrease ([2]; after 4 hours): 0.18
Increase or decrease [2]: Decrease
Rate of increase or decrease ([3]; detection intensity relative to 1 at 2 times, serum, GC/MS, freezing and thawing 10 times): 2.94
Increase or decrease ([3]; detection intensity, serum, GC/MS, freezing and thawing 10 times vs 2 times): Increase
Rate of increase or decrease ([4]; freezing and thawing 4 times): 0.55
Increase or decrease [4, 6]: Decrease
Rate of increase or decrease ([5]; after 4 hours): 0.52
Increase or decrease ([5]; after 4 hours vs 15 minutes): Decrease

O=c1[nH]cnc2nc[nH]c12 [Hypoxanthine]
Rate of increase or decrease ([3]; 10 times of freezing and thawing, relative to 1 at 2 times, different from individual to individual, first value (increase)): 1.47
Rate of increase or decrease ([3]; 10 times of freezing and thawing, relative to 1 at 2 times, different from individual to individual, second value (decrease)): 0.66
Number of times when compound is affected ([3]; serum sample, GC/MS, detection intensity changed by 30% or more vs 2 times of freezing and thawing): 10 times
Increase or decrease ([3]; serum sample, GC/MS, detection intensity vs 2 times of freezing and thawing): Different from individual
Rate of increase or decrease ([4]; freezing and thawing 6 times): 2.04
Increase or decrease ([4]; freezing and thawing 6 times vs 2 times): Increase
Increase or decrease ([5]; after 4 hours vs 15 minutes): Different from individual
Rate of increase or decrease (second value, decrease) [5, 7]: 0.70
Rate of increase or decrease (first value, increase) [5, 8]: 3.84

CC(C)(CO)[C@@H](O)C(=O)NCCC(=O)O [Pantothenic acid]
Rate of increase or decrease [1]: 3.56
Increase or decrease [1]: Increase
Rate of increase or decrease ([2]; after 4 hours): 3.15
Increase or decrease [2]: Increase
Rate of increase or decrease ([3]; detection intensity relative to 1 at 2 times, serum, GC/MS, freezing and thawing 4 times): 1.39
Increase or decrease ([3]; detection intensity, serum, GC/MS, freezing and thawing 4 times vs 2 times): Increase
Rate of increase or decrease ([4]; freezing and thawing 10 times): 1.43
Increase or decrease ([4]; freezing and thawing 10 times vs 2 times): Increase
Increase or decrease ([5]; after 6 hours vs 15 minutes): Increase

O=c1[nH]c(=O)c2[nH]cnc2[nH]1 [Xanthine]
Rate of increase or decrease [1]: 0.45
Increase or decrease [1]: Decrease
Increase or decrease [2]: Different from individual
Rate of increase or decrease (second value, decrease) [2, 7]: 0.49
Rate of increase or decrease (first value, increase) [2, 8]: 1.83
Rate of increase or decrease ([4]; freezing and thawing 4 times): 1.77
Increase or decrease [4, 6]: Increase
Rate of increase or decrease ([5]; after 6 hours): 1.39
Increase or decrease ([5]; after 6 hours vs 15 minutes): Increase
